Laboratory results reported in patent US20160339022A1, “TREATMENT OF NEUROBLASTOMA WITH HISTONE DEACETYLASE INHIBITORS” (Acetylon Pharmaceuticals Inc., priority 2015, published 2016).

How the values were obtained:
SK-N-BE(2) cells [1] = test: Microarray gene expression and gene set enrichment analysis; assay type: cell-based, Homo sapiens; conditions: 3 μM Compound B, 1 μM ATRA or combination, microarray 48 hr, fold relative to the DMSO control group
Description: Gene expression from cells treated with ATRA single agent and combination of ATRA and HDAC1/2i were assessed at 2 hrs and 48 hrs of treatment (FIG. 12A). […] A function analysis of the data using the Ingenuity IPA platform was performed by Qiagen; overlap is observed in the top hits between treatment groups.
Genes that statistically increase over 2-fold relative to the DMSO control were mapped on a Venn diagram (FIG. 12B).
Neuroblastoma cell line SK-N-BE(2) cells were treated with 3 μM Compound B, 1 μM ATRA, or a combination of both at 37° C. over 2 hours (FIG. 12A) or 48 hours (FIG. 12B) and compared to the solvent (DMSO) control.

SK-N-BE(2) cells [2] = test: Cell viability (Promega CellTiter Glo assay); assay type: cell-based
Description: Cells were cultured for 48 hours at the indicated concentration of drug, and then cell viability was measured by Promega CellTiter Glo assay and caspase activity was measured by Promega Caspase3/7 Glo assay. […] Anti-tumor activity is evident at 3 μM of treatment.

neuroblastoma cells [3] = test: Long term growth assay (15, 20, 25 days, Crystal Violet); assay type: cell-based
Description: Cells were cultured for 15, 20 or 25 days with the indicated treatments. Cells were imaged on an inverted microscope at days 15 and 20. On day 25, the cells were stained with Crystal Violet dye and imaged by cell phone camera Importantly, the combination of ATRA and Compound B suppressed the growth of ATRA-resistant colonies.
Cells were cultured for 15, 20 or 25 days with the indicated treatments. Cells were imaged on an inverted microscope at days 15 and 20. On day 25, the cells were stained with Crystal Violet dye and imaged.
Cells were cultured for 15, 20 or 25 days with the indicated treatments. Cells were imaged on an inverted microscope at days 15 and 20. On day 25, the cells were stained with Crystal Violet dye and imaged. It was observed that the combination activity is mediated by HDAC1/2i.
Neuroblastoma cells were treated with Compound B or the HDAC3-selective inhibitor Compound C in a long term growth assay.

neuroblastoma cells [4] = conditions: MTS assay, FIGS. 27 and 28
Description: Viable cells were measured in an MTS assay and the combination index (CI) was calculated using the Chou-Talaay method.

[5] = tested on: retinoic acid receptor (RAR); test: Retinoic acid receptor ChIP-seq; assay type: cell-based; conditions: 3 μM Compound B, 48 hours
From the text: Retinoic acid receptor active binding sites defined in any individual treatment group by ChIP-seq at 48 hrs after treatment were stacked (y-axis) and aligned to the center of the binding peak (x-axis) (FIG. 13). […] Many of the genes found near region 1 binding sites are involved in regulation of retinoid signaling and are transcription factors that drive differentiation (Table 10).
Regions 1-7 of FIG. 13 are defined relative to DMSO: 1, [Combo] Increased; 2, [ATRA] Increased; 3, [ATRA] [Combo] Increased; 4, [Combo] [ATRA] [Compound B] Increased; 5, [Combo] [ATRA] Decreased; 6, [Compound B] Decreased; and 7, [Compound B] [Combo] [ATRA] Decreased.
Neuroblastoma cell line SK-N-BE(2) cells were treated with 3 μM Compound B, 1 μM ATRA, or a combination of both at 37° C. over 48 hours and compared to the solvent (DMSO) control. Antibodies to pan-retinoic acid receptor were used to pull down DNA associated with the receptor binding and sequenced. Lists of binding regions were mapped to the chromosome and “associated” with a given gene if the binding region was located within 10,000 bp up- or down-stream of the gene in question. Binding regions were represented as a heatmap where the sites were stacked on the y-axis across treatments, the “0” mark on the x-axis is the center of the binding peak and the intensity of signal indicated by color. The bracketed regions are areas of statistical significance relative to the DMSO control as indicated on the plot.
Table 12 lists the genes returned when the following conditions are met: 1) combo peak height >4 fold relative to the DMSO control group, and 2) combo expression >4 fold relative to the DMSO control group.

SK-N-BE2 cells = test: Levels of proteins related to cell-cycle progression; assay type: cell-based; conditions: 3 days in culture
Description: The levels of proteins related to cell-cycle progression were assessed following treatment (SK-N-BE2 cells; 3 days in culture) with DMSO (control), Compound B alone, ATRA alone, and Compound B in combination with ATRA. p21 is increased by ATRA and enhanced by Compound B. Cyclin D1 is decreased in the combination setting relative to ATRA as a single agent. CDK2 and CDK4 are decreased in the combination setting with Compound B and ATRA.

HDAC2 = HDAC2 (Homo sapiens, UniProt Q92769); test: HDAC2 activity in live cells; assay type: cell-based; conditions: FIG. 1C
SK-N-BE(2) cells [6] = test: Differentiation Index Score based on a gene signature; assay type: cell-based; conditions: 48 hours, FIG. 1
Description: A subset of the fingerprint genes are assessed for each treatment group, and a score is assigned to each gene based on the degree of expression and weighted with a (+) or (−) sign based on if it increased or decreased as predicted. The scores are summed to generate a single Index value for each treatment group, set to ATRA signal and compared. It is observed that HDAC1/2i induce gene expression consistent with differentiation and that in combination with ATRA, the differentiation effect is enhanced.
The combination of the listed compounds with retinoic acid results in a greater differentation index score, illustrating enhanced differentiation in the combination setting.

p21 = test: Expression of cell cycle regulator p21; assay type: cell-based; conditions: single agent, FIG. 6A
[7] = SK-N-BE(2) cells, 1 μM ATRA or combination, fold relative to the DMSO control group

Sequence of HDAC2 (Q92769 whole entry): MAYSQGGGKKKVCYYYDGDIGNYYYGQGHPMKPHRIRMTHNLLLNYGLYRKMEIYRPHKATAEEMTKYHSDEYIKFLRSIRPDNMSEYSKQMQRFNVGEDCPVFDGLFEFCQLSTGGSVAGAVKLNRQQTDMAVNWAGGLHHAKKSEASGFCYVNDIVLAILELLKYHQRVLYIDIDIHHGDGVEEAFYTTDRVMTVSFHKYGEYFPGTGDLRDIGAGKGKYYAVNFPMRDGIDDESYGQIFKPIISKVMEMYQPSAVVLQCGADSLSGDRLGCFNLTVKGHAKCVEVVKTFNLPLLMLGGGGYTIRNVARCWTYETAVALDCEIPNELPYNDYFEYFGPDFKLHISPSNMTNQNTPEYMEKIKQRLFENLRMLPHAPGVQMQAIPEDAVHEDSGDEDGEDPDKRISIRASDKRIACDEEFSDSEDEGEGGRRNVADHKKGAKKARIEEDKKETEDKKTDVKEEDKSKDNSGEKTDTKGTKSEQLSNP

Nc1ccc(-c2cccs2)cc1NC(=O)c1ccc2c(c1)cc(C1CC1)n2CCN1CCOCC1 [Compound B, N-(2-amino-5-(thiophen-2-yl)phenyl)-2-cyclopropyl-1-(2-morpholinoethyl)-1H-indole-5-carboxamide]
Gene Expression Change, ACSL3 (SK-N-BE(2) cells [1]): 2.23 | Gene Expression Change, ATP7A (SK-N-BE(2) cells [1]): 1.98 | Gene Expression Change, CDKN1A (SK-N-BE(2) cells [1]): 1.93 | Gene Expression Change, CRABP2 (SK-N-BE(2) cells [1]): 1.18 | Gene Expression Change, CTSH (SK-N-BE(2) cells [1]): 3.05 | Gene Expression Change, CYP26A1 (SK-N-BE(2) cells [1]): 0.99 | Gene Expression Change, CYP26B1 (SK-N-BE(2) cells [1]): 1.87 | Gene Expression Change, DHRS3 (SK-N-BE(2) cells [1]): 1.03 | Gene Expression Change, DUSP6 (SK-N-BE(2) cells [1]): 3.33 | Gene Expression Change, ETS1 (SK-N-BE(2) cells [1]): 3.00 | Gene Expression Change, HSPA5 (SK-N-BE(2) cells [1]): 3.78 | Gene Expression Change, IER3 (SK-N-BE(2) cells [1]): 2.33 | Gene Expression Change, NFKBIZ (SK-N-BE(2) cells [1]): 1.95 | Gene Expression Change, PCDH18 (SK-N-BE(2) cells [1]): 2.53 | Gene Expression Change, PTGER2 (SK-N-BE(2) cells [1]): 1.41 | Gene Expression Change, RARB (SK-N-BE(2) cells [1]): 1.14 | Gene Expression Change, RET (SK-N-BE(2) cells [1]): 1.34 | cell death (SK-N-BE(2) cells [2]; 1 μM, 48 hours): Minimal | anti-tumor activity (SK-N-BE(2) cells [2]; 3 μM, 48 hours): evident | concentrations causing tumor cell death (SK-N-BE(2) cells [2]; FIG. 2A): ≥ 2 µM | neuroblastoma cell growth in long term growth assay (neuroblastoma cells [3]; 1 μM of exposure, single agent, FIG. 11): reduced neuroblastoma cell growth | growth of ATRA-resistant colonies (neuroblastoma cells [3]; combination with ATRA, 15-25 days): strongly suppressed | cytotoxic effect on neuroblastoma cells as a single agent (neuroblastoma cells [4]): has a cytotoxic effect | RAR Binding (Peak Height), ACSL3 [5, 7]: 2.00 | RAR Binding (Peak Height), ATP7A [5, 7]: 2.20 | RAR Binding (Peak Height), CDKN1A [5, 7]: 0.50 | RAR Binding (Peak Height), CRABP2 [5, 7]: 0.69 | RAR Binding (Peak Height), CTSH [5, 7]: 0.83 | RAR Binding (Peak Height), CYP26A1 [5, 7]: 2.33 | RAR Binding (Peak Height), CYP26B1 [5, 7]: 1.50 | RAR Binding (Peak Height), DHRS3 [5, 7]: 1.00 | RAR Binding (Peak Height), DUSP6 [5, 7]: 3.00 | RAR Binding (Peak Height), ETS1 [5, 7]: 3.35 | RAR Binding (Peak Height), HSPA5 [5, 7]: 2.00 | RAR Binding (Peak Height), IER3 [5, 7]: 2.67 | RAR Binding (Peak Height), NFKBIZ [5, 7]: 3.33 | RAR Binding (Peak Height), PCDH18 [5, 7]: 4.00 | RAR Binding (Peak Height), PTGER2 [5, 7]: 0.75 | RAR Binding (Peak Height), RARB [5, 7]: 1.10 | RAR Binding (Peak Height), RET [5, 7]: 1.71 | RAR binding to chromatin ([5]; SK-N-BE(2), 1 μM ATRA, vs DMSO): can reduce RAR binding | p21 level (SK-N-BE2 cells): enhanced | potency of inhibition of HDAC2 activity in live cells (HDAC2): 0.5 to 3 µM | Differentiation Index Score (gene signature) (SK-N-BE(2) cells [6]): induces gene expression changes consistent with differentiation | expression of master cell cycle regulator p21 (p21): increased expression
